Results as given in ChEMBL document CHEMBL1136688, “Synthesis and SAR of aminoalkoxy-biaryl-4-carboxamides: novel and selective histamine H3 receptor antagonists” (Bioorg Med Chem Lett, 2003).

Experiments:
[1] = target: Histamine H3 receptor (Rattus norvegicus, UniProt Q9QYN8); assay: Binding affinity towards rat cortical H3 receptor
[2] = target: Histamine H3 receptor (Homo sapiens, UniProt Q9Y5N1); assay: Binding affinity for human recombinant H3 receptor
[3] = target: Histamine H1 receptor (Homo sapiens, UniProt P35367); assay: Binding affinity towards human histamine (H1) receptor
Histamine H1 receptor, sequence (P35367 whole entry): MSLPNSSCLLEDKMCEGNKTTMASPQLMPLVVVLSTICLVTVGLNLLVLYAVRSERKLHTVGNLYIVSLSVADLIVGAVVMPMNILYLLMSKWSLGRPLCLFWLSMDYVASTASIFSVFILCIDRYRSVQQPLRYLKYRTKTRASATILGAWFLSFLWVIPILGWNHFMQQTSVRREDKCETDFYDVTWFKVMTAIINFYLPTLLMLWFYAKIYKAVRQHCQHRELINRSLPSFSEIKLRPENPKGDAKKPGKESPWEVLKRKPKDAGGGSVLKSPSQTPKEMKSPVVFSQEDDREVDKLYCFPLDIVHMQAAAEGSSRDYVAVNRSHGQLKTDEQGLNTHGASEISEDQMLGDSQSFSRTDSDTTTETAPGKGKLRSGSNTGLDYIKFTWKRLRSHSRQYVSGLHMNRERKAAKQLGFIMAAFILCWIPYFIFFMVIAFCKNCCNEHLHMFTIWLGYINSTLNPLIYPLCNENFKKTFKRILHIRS

[4] = target: Histamine H2 receptor (Homo sapiens, UniProt P25021); assay: Binding affinity towards human histamine (H2) receptor
Histamine H2 receptor, sequence (P25021 whole entry): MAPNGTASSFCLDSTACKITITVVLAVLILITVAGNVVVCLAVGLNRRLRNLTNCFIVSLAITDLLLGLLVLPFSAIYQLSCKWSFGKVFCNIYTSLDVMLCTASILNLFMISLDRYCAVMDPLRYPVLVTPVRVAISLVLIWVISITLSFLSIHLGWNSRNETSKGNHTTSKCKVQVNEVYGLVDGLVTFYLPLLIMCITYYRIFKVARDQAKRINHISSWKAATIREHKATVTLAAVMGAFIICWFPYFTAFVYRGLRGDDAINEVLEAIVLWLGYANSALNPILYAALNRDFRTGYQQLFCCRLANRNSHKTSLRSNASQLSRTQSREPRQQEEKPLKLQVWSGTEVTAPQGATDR

Histamine H3 receptor (Rattus norvegicus, UniProt Q9QYN8), sequence (Q9QYN8 whole entry): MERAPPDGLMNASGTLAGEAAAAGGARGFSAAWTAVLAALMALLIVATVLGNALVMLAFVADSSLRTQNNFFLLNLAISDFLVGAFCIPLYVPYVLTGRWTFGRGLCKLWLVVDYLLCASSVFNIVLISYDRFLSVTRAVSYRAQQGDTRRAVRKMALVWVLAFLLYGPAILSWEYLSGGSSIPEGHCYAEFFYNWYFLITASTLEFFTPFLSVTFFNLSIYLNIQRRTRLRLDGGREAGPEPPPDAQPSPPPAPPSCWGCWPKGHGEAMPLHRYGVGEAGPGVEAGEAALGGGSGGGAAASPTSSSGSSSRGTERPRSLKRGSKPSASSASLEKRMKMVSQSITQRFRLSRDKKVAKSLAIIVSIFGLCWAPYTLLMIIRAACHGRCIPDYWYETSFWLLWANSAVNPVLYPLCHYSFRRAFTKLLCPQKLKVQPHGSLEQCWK
Histamine H3 receptor (Homo sapiens, UniProt Q9Y5N1), sequence (Q9Y5N1 whole entry): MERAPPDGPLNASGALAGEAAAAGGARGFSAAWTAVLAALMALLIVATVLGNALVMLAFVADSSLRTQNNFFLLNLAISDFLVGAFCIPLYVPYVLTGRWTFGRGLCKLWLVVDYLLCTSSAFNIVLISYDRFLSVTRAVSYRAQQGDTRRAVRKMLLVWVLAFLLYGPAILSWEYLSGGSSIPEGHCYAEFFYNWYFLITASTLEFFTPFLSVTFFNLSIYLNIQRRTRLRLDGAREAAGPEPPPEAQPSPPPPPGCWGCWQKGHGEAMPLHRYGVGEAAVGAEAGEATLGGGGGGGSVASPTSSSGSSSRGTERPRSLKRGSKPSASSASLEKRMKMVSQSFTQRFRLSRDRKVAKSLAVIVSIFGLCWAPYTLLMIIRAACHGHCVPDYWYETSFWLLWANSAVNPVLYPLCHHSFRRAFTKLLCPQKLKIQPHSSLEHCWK

SMILES	Ki [1]	Ki [2]	Ki [3]	Ki [4]
CC(C)(C)CCC#C[C@@H]1C[C@H]1c1c[nH]cn1 [CIPRALISANT]	0.195 nM	2.14 nM	–	–
CC1CCCN1C(=O)c1ccc(-c2ccc(OCCCN3CCOCC3)cc2)cc1 (configuration not stated)	112 nM	24.5 nM	–	–
CCN(CC)C(=O)c1ccc(-c2ccc(OCCCN3CC[C@H](O)C3)cc2)cc1	42.7 nM	8.13 nM	–	–
CC1CCN(C(=O)c2ccc(-c3ccc(OCCCN4CC[C@@H](N(C)C)C4)cc3)cc2)CC1	29.5 nM	3.89 nM	–	–
CCN(CC)C(=O)c1ccc(-c2ccc(OCCCNC(C)C)cc2)cc1	407 nM	110 nM	–	–
CCN(CC)C(=O)c1ccc(-c2ccc(OCCCN3CCOCC3)cc2)cc1	97.7 nM	16.2 nM	–	–
CCN(CC)C(=O)c1ccc(-c2ccc(OCCCN3CCC(C)CC3)cc2)cc1	9.12 nM	4.79 nM	–	–
CC1CCN(C(=O)c2ccc(-c3ccc(OCCCN4[C@@H](C)CC[C@@H]4C)cc3)cc2)CC1	2.95 nM	0.603 nM	–	–
CC1CCN(C(=O)c2ccc(-c3ccc(OCCCNC(C)C)cc3)cc2)CC1	479 nM	182 nM	–	–
CC1CCN(CCCOc2ccc(-c3ccc(C(=O)NC(C)C)cc3)cc2)CC1	3.8 nM	2.09 nM	–	–
CCN(CC)C(=O)c1ccc(-c2ccc(OCCCN3CC[C@H](N(C)C)C3)cc2)cc1	28.2 nM	6.92 nM	–	–
C[C@H]1CC[C@H](C)N1C(=O)c1ccc(-c2ccc(OCCCN3CCOCC3)cc2)cc1	115 nM	37.2 nM	–	–
CC1CCN(CCCOc2ccc(-c3ccc(C(=O)N4CCCC4C)cc3)cc2)CC1 (configuration not stated)	2.82 nM	3.72 nM	–	–
CC1CCCN1C(=O)c1ccc(-c2ccc(OCCCN3[C@@H](C)CC[C@@H]3C)cc2)cc1 (some centres not stated)	1.02 nM	0.776 nM	–	–
CCN(CC)CCCOc1ccc(-c2ccc(C(=O)N3CCC(C)CC3)cc2)cc1	8.32 nM	3.47 nM	–	–
CC1CCCN1C(=O)c1ccc(-c2ccc(OCCCN3CC[C@H](O)C3)cc2)cc1 (some centres not stated)	25.7 nM	8.32 nM	–	–
CCN(CC)CCCOc1ccc(-c2ccc(C(=O)NC(C)C)cc2)cc1	16.2 nM	6.17 nM	–	–
C[C@H]1CC[C@H](C)N1CCCOc1ccc(-c2ccc(C(=O)N3CCCC3)cc2)cc1	5.13 nM	0.692 nM	–	–
CC1CCN(CCCOc2ccc(-c3ccc(C(=O)N4CCC(C)CC4)cc3)cc2)CC1	20.9 nM	10.7 nM	–	–
CC1CCN(CCCOc2ccc(-c3ccc(C(=O)N4CCCC4)cc3)cc2)CC1	10.2 nM	3.63 nM	–	–
O=C(c1ccc(-c2ccc(OCCCN3CC[C@H](O)C3)cc2)cc1)N1CCOCC1	32.4 nM	6.17 nM	–	–
C[C@H]1CC[C@H](C)N1C(=O)c1ccc(-c2ccc(OCCCN3CC[C@H](O)C3)cc2)cc1	57.5 nM	11.2 nM	–	–
CC(C)NCCCOc1ccc(-c2ccc(C(=O)N3[C@@H](C)CC[C@@H]3C)cc2)cc1	219 nM	229 nM	–	–
CN(C)[C@@H]1CCN(CCCOc2ccc(-c3ccc(C(=O)N4CCOCC4)cc3)cc2)C1	27.5 nM	5.5 nM	–	–

Continued by falling Ki [2], values first:

Ki [1]	Ki [2]	Ki [3]	Ki [4]	SMILES
178 nM	40.7 nM	–	–	O=C(c1ccc(-c2ccc(OCCCN3CCOCC3)cc2)cc1)N1CCCC1
135 nM	38.9 nM	–	–	CC(C)NC(=O)c1ccc(-c2ccc(OCCCN3CCOCC3)cc2)cc1
129 nM	32.4 nM	–	–	CC(C)NCCCOc1ccc(-c2ccc(C(=O)N3CCOCC3)cc2)cc1
70.8 nM	23.4 nM	–	–	CC1CCN(C(=O)c2ccc(-c3ccc(OCCCN4CCOCC4)cc3)cc2)CC1
52.5 nM	18.2 nM	–	–	O=C(c1ccc(-c2ccc(OCCCN3CCOCC3)cc2)cc1)N1CCOCC1
42.7 nM	9.77 nM	–	–	CC(C)NCCCOc1ccc(-c2ccc(C(=O)N3CCCC3C)cc2)cc1 (configuration not stated)
28.8 nM	8.13 nM	–	–	CC(C)N(C)C(=O)c1ccc(-c2ccc(OCCCN3CC[C@H](O)C3)cc2)cc1
8.71 nM	7.24 nM	–	–	CC1CCN(CCCOc2ccc(-c3ccc(C(=O)N4CCOCC4)cc3)cc2)CC1
30.9 nM	6.92 nM	–	–	CC1CCN(C(=O)c2ccc(-c3ccc(OCCCN4CC[C@H](O)C4)cc3)cc2)CC1
33.1 nM	6.46 nM	–	–	O=C(c1ccc(-c2ccc(OCCCN3CC[C@H](O)C3)cc2)cc1)N1CCCC1
21.4 nM	6.46 nM	–	–	CC1CCCN1C(=O)c1ccc(-c2ccc(OCCCN3CC[C@H](N(C)C)C3)cc2)cc1 (some centres not stated)
13.8 nM	5.13 nM	–	–	CCN(CC)CCCOc1ccc(-c2ccc(C(=O)N3[C@@H](C)CC[C@@H]3C)cc2)cc1
3.63 nM	4.68 nM	–	–	CC1CCN(CCCOc2ccc(-c3ccc(C(=O)N4[C@@H](C)CC[C@@H]4C)cc3)cc2)CC1
17.4 nM	4.37 nM	–	–	C[C@H]1CC[C@H](C)N1C(=O)c1ccc(-c2ccc(OCCCN3CC[C@H](N(C)C)C3)cc2)cc1
12.9 nM	3.02 nM	–	–	CCN(CC)CCCOc1ccc(-c2ccc(C(=O)N3CCCC3)cc2)cc1
18.6 nM	2.88 nM	–	–	CN(C)[C@@H]1CCN(CCCOc2ccc(-c3ccc(C(=O)N4CCCC4)cc3)cc2)C1
8.91 nM	2.4 nM	–	–	CCN(CC)CCCOc1ccc(-c2ccc(C(=O)N3CCOCC3)cc2)cc1
7.24 nM	2.14 nM	–	–	CCN(CC)CCCOc1ccc(-c2ccc(C(=O)N3CCCC3C)cc2)cc1 (configuration not stated)
6.61 nM	1.12 nM	> 1910 nM	> 1910 nM	O=C(c1ccc(-c2ccc(OCCCN3CCCC3)cc2)cc1)N1CCCC1
–	0.977 nM	–	–	C[C@H]1CC[C@H](C)N1CCCOc1ccc(-c2ccc(C(=O)N3[C@@H](C)CC[C@@H]3C)cc2)cc1
2.82 nM	0.851 nM	–	–	CC(C)NC(=O)c1ccc(-c2ccc(OCCCN3[C@@H](C)CC[C@@H]3C)cc2)cc1
–	0.776 nM	–	–	CCN(CC)C(=O)c1ccc(-c2ccc(OCCCN3[C@@H](C)CC[C@@H]3C)cc2)cc1
